According to patent US8268848B2, “Cyclopropane compound” (Eisai R&D Management Co., Ltd., priority 2010, dated 2012):
Read-outs that look alike come from different tables or passages of the source.

Assays:
[1] = molecular target: T1, OX1 (Homo sapiens, UniProt O43613); assay: Measurement of orexin receptor-binding ability ([125I]-OX-A, cell membranes, OX1); parameters: expressed in transfected cells; host or cells: CHO cells (membrane preparation)
T1 sequence (O43613 1-425): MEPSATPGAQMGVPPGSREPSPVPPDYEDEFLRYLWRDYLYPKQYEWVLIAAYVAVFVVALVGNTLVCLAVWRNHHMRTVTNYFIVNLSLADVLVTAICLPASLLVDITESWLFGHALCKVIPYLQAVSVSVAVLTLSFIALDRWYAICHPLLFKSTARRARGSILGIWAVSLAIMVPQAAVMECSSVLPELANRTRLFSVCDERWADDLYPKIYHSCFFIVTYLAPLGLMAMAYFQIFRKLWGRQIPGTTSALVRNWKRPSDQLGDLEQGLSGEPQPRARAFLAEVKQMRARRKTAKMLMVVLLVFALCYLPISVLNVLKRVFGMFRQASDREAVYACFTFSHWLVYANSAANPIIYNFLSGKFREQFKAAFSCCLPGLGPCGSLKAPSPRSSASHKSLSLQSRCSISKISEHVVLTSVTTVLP

[2] = molecular target: T2, OX2 (Homo sapiens, UniProt O43614); assay: Measurement of orexin receptor-binding ability ([125I]-OX-A, cell membranes, OX2); parameters: expressed in transfected cells; host or cells: CHO cells (membrane preparation); conditions: membranes of recombinant CHO cells expressing OX2, 0.2 nM [125I]-OX-A
T2 sequence (O43614 1-444): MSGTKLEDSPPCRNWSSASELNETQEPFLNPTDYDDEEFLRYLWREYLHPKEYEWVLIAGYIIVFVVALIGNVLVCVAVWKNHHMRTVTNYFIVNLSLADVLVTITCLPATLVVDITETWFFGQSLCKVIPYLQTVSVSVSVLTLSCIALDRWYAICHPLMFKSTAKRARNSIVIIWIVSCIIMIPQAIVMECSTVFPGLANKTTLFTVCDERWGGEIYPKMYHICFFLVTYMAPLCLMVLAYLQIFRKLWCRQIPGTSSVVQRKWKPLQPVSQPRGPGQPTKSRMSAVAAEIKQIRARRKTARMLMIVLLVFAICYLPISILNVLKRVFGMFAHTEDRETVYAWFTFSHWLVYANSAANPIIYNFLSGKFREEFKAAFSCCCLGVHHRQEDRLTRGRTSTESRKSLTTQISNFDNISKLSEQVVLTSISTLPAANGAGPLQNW

[3] = membranes of recombinant CHO cells expressing OX1, 0.2 nM [125I]-OX-A, read-out: OX1 (IC50)

CCc1nc(C)ncc1OC[C@@]1(c2ccc(F)cc2)C[C@H]1C(=O)Nc1ccccn1 [Example 245, (1R,2S)-2-{[(4-ethyl-2-methylpyrimidin-5-yl)oxy]methyl}-2-(4-fluorophenyl)-N-(pyridin-2-yl)cyclopropanecarboxamide]
IC50 [1]: 64 nM | IC50 ([2]; OX2 (IC50) nM): 10 nM

Cc1ncc(OCC2(c3cccc(C(F)(F)F)c3)CC2C(=O)Nc2ccc(C#N)cn2)c(C)n1 (stereo not shown) [Example 264]
IC50 [1, 3]: 792 nM | IC50 ([2]; read-out: OX2 (IC50)): 23 nM

COc1ccc(C2(COc3cnc(C)nc3C)CC2C(=O)Nc2ccc(F)cn2)cc1 (stereo not shown) [Example 181]
IC50 [1]: 118 nM | IC50 ([2]; OX2 (IC50) nM): 100 nM

COCc1nc(C)ncc1OC[C@@]1(c2ccc(F)cc2)C[C@H]1C(=O)Nc1ccc(F)cn1 [Example 202, (1R,2S)-2-(4-fluorophenyl)-N-(5-fluoropyridin-2-yl)-2-{[(4-methoxymethyl-2-methylpyrimidin-5-yl)oxy]methyl}cyclopropanecarboxamide]
IC50 [1]: 14 nM | IC50 ([2]; OX2 (IC50) nM): 2 nM

Cc1ncc(OC[C@@]2(c3ccccc3)C[C@H]2C(=O)Nc2cccc(Cl)n2)c(C)n1 [Example 12]
IC50 [1, 3]: 247 nM | IC50 ([2]; read-out: OX2 (IC50)): 53 nM

COc1cccc([C@]2(COc3cnc(C)nc3C)C[C@H]2C(=O)Nc2ccc(F)c(F)c2)c1 [Example 190, (1R,2S)-N-(3,4-difluorophenyl)-2-{[(2,4-dimethylpyrimidin-5-yl)oxy]methyl}-2-(3-methoxyphenyl)cyclopropanecarboxamide]
IC50 [1, 3]: 11 nM | IC50 ([2]; read-out: OX2 (IC50)): 5 nM

Cc1ncc(OC[C@@]2(c3ccccc3)C[C@H]2C(=O)Nc2ncc(C)s2)c(C)n1 [Example 2]
IC50 [1, 3]: 296 nM | IC50 ([2]; read-out: OX2 (IC50)): 19 nM

Cc1ncc(OC[C@@]2(c3cccc(F)c3)C[C@H]2C(=O)Nc2ccc(CF)cn2)c(C)n1 [Example 282]
IC50 [1]: 21 nM | IC50 ([2]; OX2 (IC50) nM): 2.4 nM

Cc1ncc(N(C)C[C@@]2(c3cccc(F)c3)C[C@H]2C(=O)Nc2ccc(F)cc2)c(C)n1 [Example 294]
IC50 [1, 3]: > 200 nM | IC50 ([2]; read-out: OX2 (IC50)): 14 nM

Cc1ncc(OC[C@@]2(c3ccccc3)C[C@H]2C(=O)Nc2cccc(S(C)(=O)=O)c2)c(C)n1 [Example 29]
IC50 [1, 3]: 459 nM | IC50 ([2]; read-out: OX2 (IC50)): 55 nM

Cc1ncc(OC[C@@]2(c3cccc(F)c3)C[C@H]2C(=O)Nc2ccccc2)c(C)n1 [Example 93, (1R,2S)-2-{[(2,4-dimethylpyrimidin-5-yl)oxy]methyl}-2-(3-fluorophenyl)-N-phenylcyclopropanecarboxamide]
IC50 [1]: 54 nM | IC50 ([2]; OX2 (IC50) nM): 9 nM

Cc1ncc(OC[C@@]2(c3ccccc3)C[C@H]2C(=O)Nc2cc(C(F)(F)F)ccn2)c(C)n1 [Example 10]
IC50 [1, 3]: 228 nM | IC50 ([2]; read-out: OX2 (IC50)): 31 nM

Cc1cccc(C2(COc3cnc(C)nc3C)CC2C(=O)Nc2ccc(F)cn2)c1 (stereo not shown) [Example 176]
IC50 [1]: 137 nM | IC50 ([2]; OX2 (IC50) nM): 26 nM

Cc1ccc(C2(COc3cnc(C)nc3C)CC2C(=O)Nc2ccc(Cl)cn2)cc1 (stereo not shown) [Example 175]
IC50 [1]: 62 nM | IC50 ([2]; OX2 (IC50) nM): 35 nM

CCc1nc(C)ncc1OC[C@@]1(c2ccc(F)cc2)C[C@H]1C(=O)Nc1cc(C)c(F)cn1 [Example 248, (1R,2S)-2-{[(4-ethyl-2-methylpyrimidin-5-yl)oxy]methyl}-N-(5-fluoro-4-methylpyridin-2-yl)-2-(4-fluorophenyl)cyclopropanecarboxamide]
IC50 [1, 3]: 10 nM | IC50 ([2]; read-out: OX2 (IC50)): 3 nM

Cc1ncc(OCC2(c3ccc(Cl)cc3)CC2C(=O)Nc2ccc(C#N)cn2)c(C)n1 (stereo not shown) [Example 159]
IC50 [1, 3]: 624 nM | IC50 ([2]; read-out: OX2 (IC50)): 62 nM

COCc1nc(C)ncc1OC[C@@]1(c2ccc(F)cc2)C[C@H]1C(=O)Nc1cc(C)c(F)cn1 [Example 205, (1R,2S)-N-(5-fluoro-4-methylpyridin-2-yl)-2-(4-fluorophenyl)-2-{[(4-methoxymethyl-2-methylpyrimidin-5-yl)oxy]methyl}cyclopropanecarboxamide]
IC50 [1]: 9 nM | IC50 ([2]; OX2 (IC50) nM): 6 nM

Cc1ncc(OC[C@@]2(c3ccccc3)C[C@H]2C(=O)Nc2ccc(Cl)cc2)c(C)n1 [Example 25]
IC50 [1, 3]: 927 nM | IC50 ([2]; read-out: OX2 (IC50)): 59 nM

Cc1ncc(OC[C@@]2(c3ccccc3)C[C@H]2C(=O)Nc2cc(F)nc(F)c2)c(C)n1 [Example 76-2, (1R,2S)-N-(2,6-difluoropyridin-4-yl)-2-{[(2,4-dimethylpyrimidin-5-yl)oxy]methyl}-2-phenylcyclopropanecarboxamide]
IC50 [1, 3]: 914 nM | IC50 ([2]; read-out: OX2 (IC50)): 47 nM

Cc1ncc(OC[C@@]2(c3ccc(O)c(F)c3)C[C@H]2C(=O)Nc2ccc(F)cn2)c(C)n1 [Example 321, (1R,2S)-2-{[(2,4-dimethylpyrimidin-5-yl)oxy]methyl}-2-(3-fluoro-4-hydroxyphenyl)-N-(5-fluoropyridin-2-yl)cyclopropanecarboxamide]
IC50 [1]: 20 nM | IC50 ([2]; OX2 (IC50) nM): 7 nM

Cc1ncc(OCC2(c3cccc(Cl)c3)CC2C(=O)Nc2ccc(Cl)cn2)c(C)n1 (stereo not shown) [Example 155]
IC50 [1]: 10 nM | IC50 ([2]; OX2 (IC50) nM): 6 nM

COc1cc(NC(=O)[C@@H]2C[C@@]2(COc2cnc(C)nc2C)c2ccc(F)cc2)ncc1F [Example 104]
IC50 [1, 3]: 4 nM | IC50 ([2]; read-out: OX2 (IC50)): 4.3 nM

COCc1nc(C)ncc1OC[C@@]1(c2cccc(F)c2)C[C@H]1C(=O)Nc1ccc(F)c(F)c1 [Example 194, (1R,2S)-N-(3,4-difluorophenyl)-2-(3-fluorophenyl)-2-{[(4-methoxymethyl-2-methylpyrimidin-5-yl)oxy]methyl}cyclopropanecarboxamide]
IC50 [1, 3]: 7 nM | IC50 ([2]; read-out: OX2 (IC50)): 3 nM

Cc1ncc(OC[C@@]2(c3cccc(F)c3)C[C@H]2c2nc3ccc(Cl)cc3c(=O)[nH]2)c(C)n1 [Example 311]
IC50 [1, 3]: 23 nM | IC50 ([2]; read-out: OX2 (IC50)): 3.1 nM

COCc1nc(C)ncc1OC[C@@]1(c2ccc(F)c(F)c2)C[C@H]1C(=O)Nc1ccc(F)cc1 [Example 213]
IC50 [1, 3]: 14 nM | IC50 ([2]; read-out: OX2 (IC50)): 11 nM

COCc1nc(C)ncc1OC[C@@]1(c2ccccc2)C[C@H]1C(=O)Nc1ccc(C#N)cn1 [Example 140, (1R,2S)-N-(5-cyanopyridin-2-yl)-2-{[(4-(methoxymethyl)-2-methylpyrimidin-5-yl)oxy]methyl}-2-phenylcyclopropanecarboxamide]
IC50 [1, 3]: 44 nM | IC50 ([2]; read-out: OX2 (IC50)): 8.9 nM

COc1cccc([C@]2(COc3cnc(C)nc3C)C[C@H]2C(=O)Nc2cc(C)c(F)cn2)c1 [Example 189, (1R,2S)-2-{[(2,4-dimethylpyrimidin-5-yl)oxy]methyl}-N-(5-fluoro-4-methylpyridin-2-yl)-2-(3-methoxyphenyl)cyclopropanecarboxamide]
IC50 [1, 3]: 7 nM | IC50 ([2]; read-out: OX2 (IC50)): 4.1 nM

Cc1ncc(OC[C@@]2(c3ccccc3)C[C@H]2C(=O)Nc2ccc(F)nc2)c(C)n1 [Example 53]
IC50 [1, 3]: 261 nM | IC50 ([2]; read-out: OX2 (IC50)): 18 nM

COCc1nc(C)ncc1OC[C@@]1(c2cccc(Cl)c2)C[C@H]1C(=O)Nc1ccccn1 [Example 225, (1R,2S)-2-(3-chlorophenyl)-2-{[(4-methoxymethyl-2-methylpyrimidin-5-yl)oxy]methyl}-N-(pyridin-2-yl)cyclopropanecarboxamide]
IC50 [1, 3]: 6 nM | IC50 ([2]; read-out: OX2 (IC50)): 3 nM
